The source of these data is patent US9669003B2, “Use of flavone and flavanone derivatives in preparation of sedative and hypnotic drugs” (priority 2012, dated 2017).

Marks after values point to notes of the source that are not given here.

Common to all, as to type: in vivo
Assay [1] concerns Kunming mice. Kind of assay: Influence on autonomic activity of normal mice (ZIL-2 mice autonomic activity meter, counts within 10 min). To be noted: intragastric, x ± s, n = 10; for Times of activities in 1 h after drug administration/10 min: 1 h after administration; for Times of activities in 2 h after drug administration/10 min: 2 h after administration; for Times of activities in 24 h after drug administration/10 min: 24 h after administration. In a few lines: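 Kunming mice (10 per group, half each sex) were dosed at 25, 50 or 100 mg/kg in 0.5% CMC-Na. Spontaneous activity counts over 10 min were recorded at 1 h, 2 h and 24 h post-dose. Groups were compared by ANOVA with Dunnett's test after Levene's check.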

Assay [2] deals with Kunming mice. Nature of the assay: Influence on hypnosis effect with pentobarbital sodium doses below the threshold (25 mg/kg i.p.). To be noted: pentobarbital sodium 25 mg/kg i.p. 60 min later, sleep observed in 30 min, n = 10. In short, it runs like this:
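Kunming mice (10 per group, half female) given single oral doses of 25, 50 or 100 mg/kg in 0.5% CMC-Na; 60 min later pentobarbital sodium 25 mg/kg i.p. Sleep (righting reflex lost >1 min) scored within 30 min as percentage asleep, χ2 test.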

For assay [3], the system named is Kunming mice. Kind of assay: Influence on hypnosis effect with pentobarbital sodium doses at the threshold (50 mg/kg i.p.). To be noted: pentobarbital sodium 50 mg/kg i.p. 60 min later, x ± s, n = 10. In short, it runs like this: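 Kunming mice (10/group, half each sex) received compound in 0.5% CMC-Na intragastrically at 25, 50 or 100 mg/kg; 60 min later given 0.3% sodium pentobarbital 50 mg/kg i.p. Sleep latency and duration recorded by loss of righting reflex over 1 min; ANOVA and χ2 for sleep incidence.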

Setting [4] is: test drug 25 mg/kg intragastric single dose.
Where [5] appears, read: test drug 50 mg/kg intragastric single dose.
Setting [6] is: test drug 100 mg/kg intragastric single dose.
[7] abbreviates: 25 mg/kg intragastric single dose.
The mark [8] stands for this setting: 50 mg/kg intragastric single dose.
Setting [9] is: 100 mg/kg intragastric single dose.

Consider `COc1cc(OC)c2c(c1)OC(c1cc(OC)c(OC)c(OC)c1)CC2=O` (stereo not drawn) [Example 46, 5,7,3′,4′,5′-penta methoxyl-flavanone], for which the figures for the “Times of activities in 1 h after drug administration/10 min” value (“Times of activities in 1 h” for short) in assay [1] (25 mg/kg), in assay [1] (50 mg/kg) and in assay [1] (100 mg/kg) were 300.8 ± 49.2 /10 min, 264.4 ± 41.3 /10 min and 176.8 ± 43.2 /10 min, respectively. The “Times of activities in 2 h after drug administration/10 min” value (“Times of activities in 2 h” for short) in assay [1] (25 mg/kg) is on record as 299.2 ± 38.9 /10 min; in assay [1] (50 mg/kg), 254.1 ± 53.2 /10 min; in assay [1] (100 mg/kg), 163.4 ± 36.5 /10 min. The “Times of activities in 24 h after drug administration/10 min” value (“Times of activities in 24 h” for short) is reported as 275.4 ± 81.3 /10 min in assay [1] (25 mg/kg), 284.7 ± 78.7 /10 min in assay [1] (50 mg/kg) and 294.4 ± 67.5 /10 min in assay [1] (100 mg/kg). For the same compound, the figures for the “Number of sleeping animals” value in assay [2] (setting [4]), in assay [2] (setting [5]) and in assay [2] (setting [6]) were 3, 6 and 7, respectively. The “rate of sleeping (%)” value was 30% in assay [2] (setting [4]), 60** % in assay [2] (setting [5]) and 70** % in assay [2] (setting [6]). Also, the duration of sleep in assay [3] (setting [7]) is listed as 27.80 ± 23.24 min; in assay [3] (setting [8]), 47.16 ± 23.51 min; in assay [3] (setting [9]) it was 55.58 ± 20.72 min. The time to sleep in assay [3] (setting [7]) is 5.52 ± 2.31 min; in assay [3] (setting [8]) it was 4.22 ± 1.23 min; in assay [3] (setting [9]), 3.96 ± 2.45 min.
With `COc1ccc(C2CC(=O)c3c(OC)c(OC)c(OC)c(OC)c3O2)cc1` (stereo not drawn) [Example 47, 5,6,7,8,4′-penta methoxyl-flavanone], the “Times of activities in 1 h” value in assay [1] (25 mg/kg) is recorded as 328.6 ± 49.7 /10 min; in assay [1] (50 mg/kg) it was 280.7 ± 61.3 /10 min; in assay [1] (100 mg/kg) it was 237.2 ± 35.6 /10 min. In addition, the “Times of activities in 2 h” value is 312.7 ± 56.1 /10 min in assay [1] (25 mg/kg), 278.6 ± 47.5 /10 min in assay [1] (50 mg/kg) and 250.3 ± 46.2 /10 min in assay [1] (100 mg/kg). Further, the “Times of activities in 24 h” value in assay [1] (25 mg/kg) is on record as 315.1 ± 85.4 /10 min; in assay [1] (50 mg/kg), 310.5 ± 75.3 /10 min; in assay [1] (100 mg/kg) it was 307.1 ± 82.3 /10 min. In addition, the “Number of sleeping animals” value was 4 in assay [2] (setting [4]), 7 in assay [2] (setting [5]) and 8 in assay [2] (setting [6]). For the same compound, the entries for the “rate of sleeping (%)” value in assay [2] (setting [4]), in assay [2] (setting [5]) and in assay [2] (setting [6]) were 40* %, 70** % and 80*** %, respectively. Also, the values for the duration of sleep in assay [3] (setting [7]), in assay [3] (setting [8]) and in assay [3] (setting [9]) were 39.86 ± 16.75 min, 43.26 ± 20.65 min and 59.78 ± 19.65 min, respectively. The time to sleep in assay [3] (setting [7]) came to 4.45 ± 1.43 min; in assay [3] (setting [8]), 3.72 ± 1.65 min; in assay [3] (setting [9]), 3.18 ± 1.54 min.
For the compound `COc1ccc(C2CC(=O)c3c(OC)c(OC)c(OC)c(OC)c3O2)cc1OC` (stereo not drawn) [Example 48, 5,6,7,8,3′,4′-hexamethoxyl-flavanone], the results for the “Times of activities in 1 h” value in assay [1] (25 mg/kg), in assay [1] (50 mg/kg) and in assay [1] (100 mg/kg) were 225.6 ± 43.2 /10 min, 145.1 ± 41.6 /10 min and 120.3 ± 48.3 /10 min, respectively. In addition, the results for the “Times of activities in 2 h” value in assay [1] (25 mg/kg), in assay [1] (50 mg/kg) and in assay [1] (100 mg/kg) were 229.4 ± 53.7 /10 min, 140.6 ± 40.8 /10 min and 118.5 ± 42.6 /10 min, respectively. Also, the “Times of activities in 24 h” value is listed as 308.5 ± 75.2 /10 min in assay [1] (25 mg/kg), 317.4 ± 95.6 /10 min in assay [1] (50 mg/kg) and 302.1 ± 89.0 /10 min in assay [1] (100 mg/kg). Also, the “Number of sleeping animals” value is listed as 5 in assay [2] (setting [4]), 6 in assay [2] (setting [5]) and 8 in assay [2] (setting [6]). The “rate of sleeping (%)” value in assay [2] (setting [4]) is 50** %; in assay [2] (setting [5]), 60** %; in assay [2] (setting [6]) it was 80*** %. The duration of sleep in assay [3] (setting [7]) is on record as 50.55 ± 20.76 min; in assay [3] (setting [8]), 67.54 ± 21.07 min; in assay [3] (setting [9]) it was 87.51 ± 24.93 min. The time to sleep came to 3.40 ± 1.25 min in assay [3] (setting [7]), 3.19 ± 1.21 min in assay [3] (setting [8]) and 2.05 ± 1.80 min in assay [3] (setting [9]).
Consider `COc1cc(OC)cc(C2CC(=O)c3c(OC)cc(OC)cc3O2)c1` (stereo not drawn) [Example 49], for which the “Times of activities in 1 h” value in assay [1] (25 mg/kg) was 305.2 ± 78.7 /10 min; in assay [1] (50 mg/kg), 267.9 ± 21.5 /10 min; in assay [1] (100 mg/kg) it was 179.9 ± 35.9 /10 min. In addition, the “Times of activities in 2 h” value in assay [1] (25 mg/kg) is 299.8 ± 94.1 /10 min; in assay [1] (50 mg/kg), 246.6 ± 13.9 /10 min; in assay [1] (100 mg/kg), 170.5 ± 34.1 /10 min. The “Times of activities in 24 h” value in assay [1] (25 mg/kg) is listed as 281.4 ± 94.3 /10 min; in assay [1] (50 mg/kg), 274.2 ± 34.8 /10 min; in assay [1] (100 mg/kg), 286.1 ± 12.7 /10 min. Also, the “Number of sleeping animals” value in assay [2] (setting [4]) was 4; in assay [2] (setting [5]), 6; in assay [2] (setting [6]), 7. Further, the “rate of sleeping (%)” value in assay [2] (setting [4]) is recorded as 40* %; in assay [2] (setting [5]), 60** %; in assay [2] (setting [6]) it was 70** %. Besides, the values for the duration of sleep in assay [3] (setting [7]), in assay [3] (setting [8]) and in assay [3] (setting [9]) were 37.90 ± 13.18 min, 40.75 ± 23.05 min and 57.65 ± 17.87 min, respectively. In addition, the time to sleep in assay [3] (setting [7]) was found to be 4.59 ± 1.55 min; in assay [3] (setting [8]), 3.69 ± 1.32 min; in assay [3] (setting [9]) it was 3.38 ± 1.29 min.
Consider `COc1c(O)cc(C2CC(=O)c3c(O)cc(O)cc3O2)cc1C(=O)O` (stereo not drawn) [Example 50], for which the “Times of activities in 1 h” value in assay [1] (25 mg/kg) was 319.2 ± 55.4 /10 min; in assay [1] (50 mg/kg) it was 297.5 ± 42.5 /10 min; in assay [1] (100 mg/kg), 279.4 ± 48.3 /10 min. Also, the “Times of activities in 2 h” value is listed as 290.6 ± 41.2 /10 min in assay [1] (25 mg/kg), 253.5 ± 40.4 /10 min in assay [1] (50 mg/kg) and 224.7 ± 46.3 /10 min in assay [1] (100 mg/kg). Besides, the “Times of activities in 24 h” value in assay [1] (25 mg/kg) is recorded as 303.2 ± 78.6 /10 min; in assay [1] (50 mg/kg), 304.7 ± 92.8 /10 min; in assay [1] (100 mg/kg), 312.4 ± 79.1 /10 min. Moreover, the “Number of sleeping animals” value in assay [2] (setting [4]) is listed as 2; in assay [2] (setting [5]) it was 4; in assay [2] (setting [6]), 7. Besides, the “rate of sleeping (%)” value is 20% in assay [2] (setting [4]), 40* % in assay [2] (setting [5]) and 70** % in assay [2] (setting [6]). Besides, the duration of sleep in assay [3] (setting [7]) is listed as 22.71 ± 26.17 min; in assay [3] (setting [8]) it was 28.68 ± 27.56 min; in assay [3] (setting [9]) it was 65.35 ± 46.27 min. Moreover, the time to sleep came to 5.41 ± 2.17 min in assay [3] (setting [7]), 5.07 ± 2.34 min in assay [3] (setting [8]) and 3.25 ± 1.16 min in assay [3] (setting [9]).
